These results are taken from patent US5767078A, “Agonist peptide dimers” (priority 1995, dated 1998).

Experiment [1] has as its system BDF1 mice. Kind of experiment: Polycythemic exhypoxic mouse bioassay ([59Fe] incorporation into nascent red blood cells). The format is in vivo. Conditions: on a mole equivalent basis. How it is done: Peptides were assayed for in vivo activity in the polycythemic mouse bioassay adapted from the method described by Cotes and Bangham (1961), Nature 191: 1065-1067. BDF1 mice were allowed to acclimate to ambient conditions for 7-10 days. Body weights were determined for all animals. Low weight animals (<15 grams) were not used. Mice were introduced to hypobaric chambers with a 24 hour conditioning cycle consisting of 0.40% +/-0.02 atm. for 18 hours followed by 6 hours at ambient pressure for a total of 14 days. Following the 14 day period, mice were placed in ambient pressure for 72 hours prior to dosing. […] Peptide sample stock solutions (excluding peptide dimers) were first solubilized in dimethyl sulfoxide (DMSO). Control groups included one group of vehicle alone, and one group of (DMSO) at final concentration of 1%.
Each dose group contained 10 mice. Mice were injected subcutaneously (scruff of neck) with 0.5 ml of the appropriate sample. […]
Mouse body weights were determined twenty four hours following [^59 Fe] administration and the mice were sacrificed forty eight hours following the [^59 Fe] injection. Blood was collected from each animal by cardiac puncture and hematocrits were determined (heparin was used as the anticoagulant). Each blood sample (0.2 ml) was analyzed for [^59 Fe] incorporation using a Packard gamma counter. […]

Experiment [2] addresses T1, murine EPO receptor (Mus musculus, UniProt P14753).
T1 construct: expressed in transfected cells; host or cells: FDC-P1/ER cells
T1 sequence (P14753 25-507): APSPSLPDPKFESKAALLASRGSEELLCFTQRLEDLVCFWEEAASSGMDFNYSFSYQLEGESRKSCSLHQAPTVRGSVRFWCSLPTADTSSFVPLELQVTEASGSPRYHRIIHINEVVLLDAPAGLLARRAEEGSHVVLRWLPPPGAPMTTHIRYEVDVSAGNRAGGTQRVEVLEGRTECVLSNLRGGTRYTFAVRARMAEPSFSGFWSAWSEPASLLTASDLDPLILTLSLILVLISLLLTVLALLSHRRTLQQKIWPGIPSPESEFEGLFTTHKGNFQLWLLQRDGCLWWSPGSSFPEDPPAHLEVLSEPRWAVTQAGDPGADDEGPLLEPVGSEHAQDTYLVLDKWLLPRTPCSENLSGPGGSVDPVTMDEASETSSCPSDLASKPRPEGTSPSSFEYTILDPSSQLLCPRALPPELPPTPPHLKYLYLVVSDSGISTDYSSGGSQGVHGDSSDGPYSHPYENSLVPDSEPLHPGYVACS
Kind of experiment: EPO dependent cell proliferation assay, FDC-P1/ER cells. The format is cell-based. As for the experimental part:
After 24 hours, the cells were counted, resuspended at 800,000 cells/ml and dispensed at 40,000 cells/well. Stock solutions of the peptide dimer (5 mM in PBS) and peptide (10 mM in DMSO) were prepared and dispensed in triplicate to final concentrations of 1×10^-10 M through 1×10^-5 M and adjusted to a final volume of 0.2 ml. […] After a 42 hr incubation at 37° C. (ca. 2 cell doublings) 1 μCi/well of [^3 H] thymidine was added and the incubation continued for 6 hr at which time the cells were harvested and counted to assess [^3 H]thymidine incorporation as a measure of cell proliferation.

Bridge positions count the residues as written; N and C are the ends. Ends that are not written are not given here.

Turning to “peptide (SEQ ID NO: 8)/PEG-dimer: PEG dimer of peptide SEQ ID NO: 8, lot not stated for the in vivo bioassay (GGTYSCHFGPLTWVCKPQGG-NH2; disulfide 6-15 (inferred); also: PEG covalent dimer)”, in experiment [1], the “in vivo activity of dimer relative to monomer” value is given as “about 10 fold”. The “increase in potency versus parent peptide, murine receptor line” value in experiment [2] turned out to be 10 fold.
